BindingDB's records for doi:10.1016/s0960-894x(03)00389-5 (National Institute On Drug Abuse-Intramural Research Program, 2003)

How the values were obtained:
[1] = Agonistic activity of quinpirole stimulation of mitogenesis in human dopamine D3 transfected CHO cells
[2] = Agonistic activity of quinpirole stimulation of mitogenesis in human Dopamine receptor D3 transfected CHO cells

EC50 [1] [µM]	EC50 [2] [µM]	SMILES
> 10		O=C(NC/C=C\CN1CCN(c2cccc(Cl)c2Cl)CC1)c1ccccc1 [N-{(Z)-4-[4-(2,3-Dichloro-phenyl)-piperazin-1-yl]-but-2-enyl}-benzamide]
	> 10	O=C(NC/C=C/CN1CCN(c2cccc(Cl)c2Cl)CC1)c1ccccc1 [N-{(E)-4-[4-(2,3-Dichloro-phenyl)-piperazin-1-yl]-but-2-enyl}-benzamide]
